Assay results taken from US9980943B2, “Methods of treating muscular dystrophy” (BOARD OF REGENTS OF THE NEVADA SYSTEM OF HIGHER EDUCATION, …, priority 2013, dated 2018).

Experiments:
Format in all cases: cell-based, mouse
[1] = tested on: α7 integrin (LacZ reporter in α7+/LacZ myotubes); assay: Myotube α7 integrin FDG assay (Burkin assay in myotubes, 96-well); conditions: myotubes
[2] = tested on: α7 integrin (LacZ reporter in α7βgal+/− myoblasts); assay: Myoblast α7+/LacZ integrin FDG assay (Burkin assay in myoblasts, 96-well); conditions: α7+/LacZ myoblasts, 96-well
[3] = tested on: β-galactosidase in CMV-LacZ C2C12 myotubes; assay: CMV-LacZ secondary screen in C2C12 myotubes (β-Gal stabilizing assay); conditions: C2C12 CMV-LacZ myotubes, fold relative to DMSO
Summary of the method: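 First, C2C12 myoblasts were transfected with a linearized CMV-LACZ vector and clonal lines selected by FDG β-gal assay. Then cells were exposed to compounds at 0.5, 1, 5, 10, 20 and 40 μM in 96-well format, two replicates each, and β-gal measured.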

[4] = tested on: β-galactosidase in CMV-LacZ C2C12 myoblasts; assay: CMV-LacZ secondary screen in C2C12 myoblasts (β-Gal stabilizing assay); conditions: CMV-LacZ C2C12 myoblasts
Summary of the method: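 A secondary screen identifies compounds that stabilize β-gal independently of the native promoter, using CMV-LacZ C2C12 cells. Curves span 0.5–40 μM at six levels, in duplicate.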

Structure (SMILES)	Burkin Assay in Myotubes, α7 integrin LacZ reporter signal relative to DMSO ([1]; 0.5 uM)	Burkin Assay in Myotubes, α7 integrin LacZ reporter signal relative to DMSO ([1]; 1 uM)	Burkin Assay in Myotubes, α7 integrin LacZ reporter signal relative to DMSO ([1]; 5 uM)	Burkin Assay in Myotubes, α7 integrin LacZ reporter signal relative to DMSO ([1]; 10 uM)	Burkin Assay in Myotubes, α7 integrin LacZ reporter signal relative to DMSO ([1]; 20 uM)	Burkin Assay in Myotubes, α7 integrin LacZ reporter signal relative to DMSO ([1]; 40 uM)	Burkin Assay in Myoblasts, signal relative to DMSO ([2]; 0.5 uM)	Burkin Assay in Myoblasts, signal relative to DMSO ([2]; 1 uM)	Burkin Assay in Myoblasts, signal relative to DMSO ([2]; 5 uM)	Burkin Assay in Myoblasts, signal relative to DMSO ([2]; 10 uM)	Burkin Assay in Myoblasts, signal relative to DMSO ([2]; 20 uM)	Burkin Assay in Myoblasts, signal relative to DMSO ([2]; 40 uM)	CMV-LACZ in Myotubes, signal relative to DMSO ([3]; 0.5 uM)	CMV-LACZ in Myotubes, signal relative to DMSO ([3]; 1 uM)	CMV-LACZ in Myotubes, signal relative to DMSO ([3]; 5 uM)	CMV-LACZ in Myotubes, signal relative to DMSO ([3]; 10 uM)	CMV-LACZ in Myotubes, signal relative to DMSO ([3]; 20 uM)	CMV-LACZ in Myotubes, signal relative to DMSO ([3]; 40 uM)	CMV-LACZ in Myoblasts (β-galactosidase activity relative to DMSO) ([4]; 0.5 uM)	CMV-LACZ in Myoblasts (β-galactosidase activity relative to DMSO) ([4]; 1 uM)	other results
COc1cccc(CN2CCN(Cc3ccco3)CC2)c1.O=C(O)C(=O)O [MLS001211139-01]	1.167	1.288	1.003	0.9425	0.8283	0.7547	1.2392	1.136	1.065	0.9683	1.218	1.216	0.9281	0.8948	1.1755	1.0196	0.8259	1.0224	0.9691	0.7347	CMV-LACZ in Myoblasts (β-galactosidase activity relative to DMSO) ([4]; 5 uM): 0.9500; CMV-LACZ in Myoblasts (β-galactosidase activity relative to DMSO) ([4]; 10 uM): 0.8608; CMV-LACZ in Myoblasts (β-galactosidase activity relative to DMSO) ([4]; 20 uM): 1.0659; CMV-LACZ in Myoblasts (β-galactosidase activity relative to DMSO) ([4]; 40 uM): 0.8744
Cc1[nH]c2ccc(F)cc2c1CCN(Cc1ccco1)C(=S)NC(C)(C)C [MLS000419286-01]	0.9511	0.8124	0.879	0.948	0.457	0.193	1.166	1.002	0.9174	0.8951	0.7945	0.7199	0.9990	1.1867	1.0268	1.1581	0.8530	0.7830	0.9960	0.7960	CMV-LACZ in Myoblasts (β-galactosidase activity relative to DMSO) ([4]; 5 uM): 0.9701; CMV-LACZ in Myoblasts (β-galactosidase activity relative to DMSO) ([4]; 10 uM): 0.8022; CMV-LACZ in Myoblasts (β-galactosidase activity relative to DMSO) ([4]; 20 uM): 0.9368; CMV-LACZ in Myoblasts (β-galactosidase activity relative to DMSO) ([4]; 40 uM): 0.6295
Nc1ncnc(NCc2ccccc2)c1[N+](=O)[O-] [MLS000698826-01]	1.008	0.8718	1.08	0.9001	0.9575	0.7844	1.019	1.008	1.246	0.9598	0.9937	1.023	1.2010	1.0200	1.1232	0.9634	1.0505	1.0789	0.9942	0.9717	CMV-LACZ in Myoblasts (β-galactosidase activity relative to DMSO) ([4]; 5 uM): 0.8824; CMV-LACZ in Myoblasts (β-galactosidase activity relative to DMSO) ([4]; 10 uM): 0.9013; CMV-LACZ in Myoblasts (β-galactosidase activity relative to DMSO) ([4]; 20 uM): 1.2944; CMV-LACZ in Myoblasts (β-galactosidase activity relative to DMSO) ([4]; 40 uM): 1.2519
